Laboratory results published in patent US11058678B2 (Enanta Pharmaceuticals, Inc., priority 2018, dated 2021).

Test system: HBV (2.2.15 cells)
Experiment: Antiviral activity in 2.2.15 cells: reduction of viral product accumulation (qPCR of lysates, HBsAg or HBeAg ELISA)
Assay type: cell-based, hepatitis B virus (HBV)
Conditions: Hepatitis B virus, 120 h, day 5 post treatment, 50% reduction of viral product accumulation in lysates or supernatants vs no drug controls, readout (qPCR, HBsAg, HBeAg) not specified
Method: 2.2.15 cells are passaged upon attaining confluency in DMEM/F12 media in the presence of 10% FBS, Penn/Strep, and 250 ug/mL G418. Novel compounds are 5 fold serially diluted in DMSO and added to 96 well plates containing 35,000 cells/well at a 1:200 dilution so that the final concentration of DMSO is 0.5%. On day 5, post treatment cell lysates and supernatants are harvested for analysis.
Cells are lysed using Agilent Sidestep Lysis buffer, diluted 1:100 and quantified via quantitative real time PCR. Commercially available ELISA kits are used to quantitate the viral proteins HBsAg (Alpco) or HBeAg (US Biological) by following the manufacturer's recommended protocol after diluting samples to match the linear range of their respective assays. Irrespective of readout, compound concentrations that reduce viral product accumulation in the cell lysates or supernatants by 50% relative to no drug controls (EC50) are reported; EC50 ranges are as follows: A<0.1 μM; B 0.1-1 μM; C>1 μM.

| SMILES | EC50 [nM] |
| --- | --- |
| CCn1cc(-c2cc3c(cc2OCCCOC)C[C@@H](C(C)(C)C)n2cc(C(=O)O)c(=O)cc2-3)cn1 [Example 34, (S)-6-(tert-butyl)-10-(1-ethyl-1H-pyrazol-4-yl)-9-(3-methoxypropoxy)-2-oxo-6,7-dihydro-2H-pyrido[2,1-a]isoquinoline-3-carboxylic Acid] | < 100 |
| COCCCCc1cc2c(cc1N1CC(F)(F)C1)-c1cc(=O)c(C(=O)O)cn1[C@H](C(C)(C)C)C2 [Example 153, (S)-6-(tert-butyl)-10-(3,3-difluoroazetidin-1-yl)-9-(4-methoxybutyl)-2-oxo-6,7-dihydro-2H-pyrido[2,1-a]isoquinoline-3-carboxylic Acid] | < 100 |
| CC1(C)Cc2c3c(cc(-c4ccn[nH]4)c2O1)-c1cc(=O)c(C(=O)O)cn1[C@H](C(C)(C)C)C3 [Example 146, (S)-5-(tert-butyl)-2,2-dimethyl-9-oxo-12-(1H-pyrazol-5-yl)-2,3,4,9-tetrahydro-5H-furo[3,2-f]pyrido[2,1-a]isoquinoline-8-carboxylic Acid] | > 1000 |
| CC(C)(C)[C@@H]1Cc2c(cc(-c3ccc(Cl)cc3)c3c2CCO3)-c2cc(=O)c(C(=O)O)cn21 [Example 84, (S)-5-(tert-butyl)-12-(4-chlorophenyl)-9-oxo-2,3,4,9-tetrahydro-5H-furo[3,2-f]pyrido[2,1-a]isoquinoline-8-carboxylic Acid] | > 1000 |
| COCCCOc1cc2c(cc1-c1ccc(OC(F)(F)F)cc1)-c1cc(=O)c(C(=O)O)cn1[C@H](C(C)(C)C)C2 [Example 37, (S)-6-(tert-butyl)-9-(3-methoxypropoxy)-2-oxo-10-(4-(trifluoromethoxy)phenyl)-6,7-dihydro-2H-pyrido[2,1-a]isoquinoline-3-carboxylic Acid] | > 1000 |
| COCCCOc1cc2c(cc1-c1ccccc1)-c1cc(=O)c(C(=O)O)cn1[C@H]1[C@@H]2COC1(C)C [Example 141] | < 100 |
| CC(C)(C)[C@@H]1Cc2c(cc(N3CC(F)(F)C3)c3c2C[C@H](C(F)F)O3)-c2cc(=O)c(C(=O)O)cn21 [Example 155, (2R,5S)-5-(tert-butyl)-12-(3,3-difluoroazetidin-1-yl)-2-(difluoromethyl)-9-oxo-2,3,4,9-tetrahydro-5H-furo[3,2-f]pyrido[2,1-a]isoquinoline-8-carboxylic Acid] | > 1000 |
| CC1(C)Cc2c3c(cc(-c4ccoc4)c2O1)-c1cc(=O)c(C(=O)O)cn1[C@H](C(C)(C)C)C3 [Example 133, (S)-5-(tert-butyl)-12-(furan-3-yl)-2,2-dimethyl-9-oxo-2,3,4,9-tetrahydro-5H-furo[3,2-f]pyrido[2,1-a]isoquinoline-8-carboxylic acid] | 100 to 1000 |
| COCCCOc1cc2c(cc1-c1cnsc1)-c1cc(=O)c(C(=O)O)cn1[C@H]1[C@@H]2COC1(C)C [Example 127, (3aS,12bR)-10-(isothiazol-4-yl)-11-(3-methoxypropoxy)-3,3-dimethyl-7-oxo-3,3a,7,12b-tetrahydro-1H-furo[3,4-c]pyrido[2,1-a]isoquinoline-6-carboxylic Acid] | < 100 |
| COCCCOc1cc2c(cc1-c1ccsc1)-c1cc(=O)c(C(=O)O)cn1[C@H]1[C@@H]2COC1(C)C [Example 143, (3aS,12bR)-11-(3-methoxypropoxy)-3,3-dimethyl-7-oxo-10-(thiophen-3-yl)-3,3a,7,12b-tetrahydro-1H-furo[3,4-c]pyrido[2,1-a]isoquinoline-6-carboxylic Acid] | < 100 |
| CC(C)(C)[C@@H]1Cc2c(cc(-c3cnsc3)c3c2CCO3)-c2cc(=O)c(C(=O)O)cn21 [Example 73, (S)-5-(tert-butyl)-12-(isothiazol-4-yl)-9-oxo-2,3,4,9-tetrahydro-5H-furo[3,2-f]pyrido[2,1-a]isoquinoline-8-carboxylic Acid] | < 100 |
| CC(C)(C)[C@@H]1Cc2c(cc(-c3cnco3)c3c2CCO3)-c2cc(=O)c(C(=O)O)cn21 [Example 83, (S)-5-(tert-butyl)-12-(oxazol-5-yl)-9-oxo-2,3,4,9-tetrahydro-5H-furo[3,2-f]pyrido[2,1-a]isoquinoline-8-carboxylic Acid] | < 100 |
| COCCCOc1cc2c(cc1-c1ccc3c(c1)OCCO3)-c1cc(=O)c(C(=O)O)cn1[C@H](C(C)(C)C)C2 [Example 31, (S)-6-(tert-butyl)-10-(2,3-dihydrobenzo[b][1,4]dioxin-6-yl)-9-(3-methoxypropoxy)-2-oxo-6,7-dihydro-2H-pyrido[2,1-a]isoquinoline-3-carboxylic Acid] | < 100 |
| COCCCOc1cc2c(cc1-c1nnnn1C)-c1cc(=O)c(C(=O)O)cn1[C@H](C(C)(C)C)C2 [Example 35, (S)-6-(tert-butyl)-9-(3-methoxypropoxy)-10-(1-methyl-1H-tetrazol-5-yl)-2-oxo-6,7-dihydro-2H-pyrido[2,1-a]isoquinoline-3-carboxylic Acid] | < 100 |
| CC(C)[C@@H]1Cc2c(cc(N3CCCC3)c3c2CCO3)-c2cc(=O)c(C(=O)O)cn21 [Example 110, (S)-5-isopropyl-9-oxo-12-(pyrrolidin-1-yl)-2,3,4,9-tetrahydro-5H-furo[3,2-f]pyrido[2,1-a]isoquinoline-8-carboxylic Acid] | < 100 |
| COc1ccc(-c2cc3c(c4c2OCC4)C[C@@H](C(C)C)n2cc(C(=O)O)c(=O)cc2-3)cc1 [Example 115, (S)-5-isopropyl-12-(4-methoxyphenyl)-9-oxo-2,3,4,9-tetrahydro-5H-furo[3,2-f]pyrido[2,1-a]isoquinoline-8-carboxylic Acid] | > 1000 |
| CC(C)[C@@H]1Cc2c(cc(-c3ccc(Cl)cc3)c3c2CCO3)-c2cc(=O)c(C(=O)O)cn21 [Example 109, (S)-12-(4-chlorophenyl)-5-isopropyl-9-oxo-2,3,4,9-tetrahydro-5H-furo[3,2-f]pyrido[2,1-a]isoquinoline-8-carboxylic Acid] | > 1000 |
| CC1(C)Cc2c3c(cc(-c4ccco4)c2O1)-c1cc(=O)c(C(=O)O)cn1[C@H](C(C)(C)C)C3 [Example 148, (S)-5-(tert-butyl)-12-(furan-2-yl)-2,2-dimethyl-9-oxo-2,3,4,9-tetrahydro-5H-furo[3,2-f]pyrido[2,1-a]isoquinoline-8-carboxylic Acid] | > 1000 |
| COCCCOc1cc2c(cc1N1CCC1)-c1cc(=O)c(C(=O)O)cn1[C@H](C(C)(C)C)C2 [Example 55, (S)-10-(azetidin-1-yl)-6-(tert-butyl)-9-(3-methoxypropoxy)-2-oxo-6,7-dihydro-2H-pyrido[2,1-a]isoquinoline-3-carboxylic Acid] | < 100 |
| COCCCOc1cc2c(cc1-c1ccnn1C)-c1cc(=O)c(C(=O)O)cn1[C@H]1[C@@H]2COC1(C)C [Example 122, (3aS,12bR)-11-(3-methoxypropoxy)-3,3-dimethyl-10-(1-methyl-1H-pyrazol-5-yl)-7-oxo-3,3a,7,12b-tetrahydro-1H-furo[3,4-c]pyrido[2,1-a]isoquinoline-6-carboxylic Acid] | > 1000 |
| COCCCOc1cc2c(cc1-c1cccnc1)-c1cc(=O)c(C(=O)O)cn1[C@H]1[C@@H]2COC1(C)C [Example 128, (3aS,12bR)-11-(3-methoxypropoxy)-3,3-dimethyl-7-oxo-10-(pyridin-3-yl)-3,3a,7,12b-tetrahydro-1H-furo[3,4-c]pyrido[2,1-a]isoquinoline-6-carboxylic Acid] | < 100 |
| CC(C)(C)[C@@H]1Cc2c(cc(C3CCCO3)c3c2CCO3)-c2cc(=O)c(C(=O)O)cn21 (stereo partly drawn) [Example 129, (5S)-5-(tert-butyl)-9-oxo-12-(tetrahydrofuran-2-yl)-2,3,4,9-tetrahydro-5H-furo[3,2-f]pyrido[2,1-a]isoquinoline-8-carboxylic Acid] | < 100 |
| Cn1cc(-c2cc3c(c4c2OC(C)(C)C4)C[C@@H](C(C)(C)C)n2cc(C(=O)O)c(=O)cc2-3)cn1 [Example 151, (S)-5-(tert-butyl)-2,2-dimethyl-12-(1-methyl-1H-pyrazol-4-yl)-9-oxo-2,3,4,9-tetrahydro-5H-furo[3,2-f]pyrido[2,1-a]isoquinoline-8-carboxylic Acid] | > 1000 |
| COCCCOc1cc2c(cc1-c1c(C)nn(C)c1C)-c1cc(=O)c(C(=O)O)cn1[C@H](C(C)(C)C)C2 [Example 33, (S)-6-(tert-butyl)-9-(3-methoxypropoxy)-2-oxo-10-(1,3,5-trimethyl-1H-pyrazol-4-yl)-6,7-dihydro-2H-pyrido[2,1-a]isoquinoline-3-carboxylic Acid] | < 100 |
| CC(C)(C)[C@@H]1Cc2c(cc(-c3cccc(C(F)(F)F)c3)c3c2CCO3)-c2cc(=O)c(C(=O)O)cn21 [Example 81, (S)-5-(tert-butyl)-9-oxo-12-(3-(trifluoromethyl)phenyl)-2,3,4,9-tetrahydro-5H-furo[3,2-f]pyrido[2,1-a]isoquinoline-8-carboxylic Acid] | > 1000 |
| COCCCOc1cc2c(cc1-c1cn[nH]c1)-c1cc(=O)c(C(=O)O)cn1[C@H]1[C@@H]2COC1(C)C [Example 135, (3aS,12bR)-11-(3-methoxypropoxy)-3,3-dimethyl-7-oxo-10-(1H-pyrazol-4-yl)-3,3a,7,12b-tetrahydro-1H-furo[3,4-c]pyrido[2,1-a]isoquinoline-6-carboxylic Acid] | < 100 |
| COCCCOc1cc2c(cc1-c1ccco1)-c1cc(=O)c(C(=O)O)cn1[C@H]1[C@@H]2COC1(C)C [Example 125, (3aS,12bR)-10-(furan-2-yl)-11-(3-methoxypropoxy)-3,3-dimethyl-7-oxo-3,3a,7,12b-tetrahydro-1H-furo[3,4-c]pyrido[2,1-a]isoquinoline-6-carboxylic Acid] | < 100 |
